Structures can show the parent of a compound that is named as a salt.
Each compound was assayed against T1, recombinant human baculovirus-expressed GST-tagged FASN (Homo sapiens, UniProt P49327) (assay: FASN enzyme activity assay, fluorescence-based detection of CoA with CPM). Settings: 5 nM FASN, 150 μM NADPH, 10 μM acetyl-CoA, 25 μM malonyl-CoA, 90 minutes incubation; read-out: IC50 data for Additional Compounds of Formulae I-V(a): Activity.
T1 construct: GST
Format: biochemical
How it was run: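 Human GST-tagged FASN, baculovirus-expressed (5 nM), in 50 mM HEPES pH 7.5 with 150 μM NADPH, 10 μM acetyl-CoA, 25 μM malonyl-CoA, 0.5% DMSO; malonyl-CoA-started, 90 min. Released CoA detected with CPM (50 μM dilution), 30 min, fluorescence ex 390/em 530. IC50 from variable-slope sigmoidal fit of % inhibition versus log concentration.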

T1 sequence (P49327 whole entry): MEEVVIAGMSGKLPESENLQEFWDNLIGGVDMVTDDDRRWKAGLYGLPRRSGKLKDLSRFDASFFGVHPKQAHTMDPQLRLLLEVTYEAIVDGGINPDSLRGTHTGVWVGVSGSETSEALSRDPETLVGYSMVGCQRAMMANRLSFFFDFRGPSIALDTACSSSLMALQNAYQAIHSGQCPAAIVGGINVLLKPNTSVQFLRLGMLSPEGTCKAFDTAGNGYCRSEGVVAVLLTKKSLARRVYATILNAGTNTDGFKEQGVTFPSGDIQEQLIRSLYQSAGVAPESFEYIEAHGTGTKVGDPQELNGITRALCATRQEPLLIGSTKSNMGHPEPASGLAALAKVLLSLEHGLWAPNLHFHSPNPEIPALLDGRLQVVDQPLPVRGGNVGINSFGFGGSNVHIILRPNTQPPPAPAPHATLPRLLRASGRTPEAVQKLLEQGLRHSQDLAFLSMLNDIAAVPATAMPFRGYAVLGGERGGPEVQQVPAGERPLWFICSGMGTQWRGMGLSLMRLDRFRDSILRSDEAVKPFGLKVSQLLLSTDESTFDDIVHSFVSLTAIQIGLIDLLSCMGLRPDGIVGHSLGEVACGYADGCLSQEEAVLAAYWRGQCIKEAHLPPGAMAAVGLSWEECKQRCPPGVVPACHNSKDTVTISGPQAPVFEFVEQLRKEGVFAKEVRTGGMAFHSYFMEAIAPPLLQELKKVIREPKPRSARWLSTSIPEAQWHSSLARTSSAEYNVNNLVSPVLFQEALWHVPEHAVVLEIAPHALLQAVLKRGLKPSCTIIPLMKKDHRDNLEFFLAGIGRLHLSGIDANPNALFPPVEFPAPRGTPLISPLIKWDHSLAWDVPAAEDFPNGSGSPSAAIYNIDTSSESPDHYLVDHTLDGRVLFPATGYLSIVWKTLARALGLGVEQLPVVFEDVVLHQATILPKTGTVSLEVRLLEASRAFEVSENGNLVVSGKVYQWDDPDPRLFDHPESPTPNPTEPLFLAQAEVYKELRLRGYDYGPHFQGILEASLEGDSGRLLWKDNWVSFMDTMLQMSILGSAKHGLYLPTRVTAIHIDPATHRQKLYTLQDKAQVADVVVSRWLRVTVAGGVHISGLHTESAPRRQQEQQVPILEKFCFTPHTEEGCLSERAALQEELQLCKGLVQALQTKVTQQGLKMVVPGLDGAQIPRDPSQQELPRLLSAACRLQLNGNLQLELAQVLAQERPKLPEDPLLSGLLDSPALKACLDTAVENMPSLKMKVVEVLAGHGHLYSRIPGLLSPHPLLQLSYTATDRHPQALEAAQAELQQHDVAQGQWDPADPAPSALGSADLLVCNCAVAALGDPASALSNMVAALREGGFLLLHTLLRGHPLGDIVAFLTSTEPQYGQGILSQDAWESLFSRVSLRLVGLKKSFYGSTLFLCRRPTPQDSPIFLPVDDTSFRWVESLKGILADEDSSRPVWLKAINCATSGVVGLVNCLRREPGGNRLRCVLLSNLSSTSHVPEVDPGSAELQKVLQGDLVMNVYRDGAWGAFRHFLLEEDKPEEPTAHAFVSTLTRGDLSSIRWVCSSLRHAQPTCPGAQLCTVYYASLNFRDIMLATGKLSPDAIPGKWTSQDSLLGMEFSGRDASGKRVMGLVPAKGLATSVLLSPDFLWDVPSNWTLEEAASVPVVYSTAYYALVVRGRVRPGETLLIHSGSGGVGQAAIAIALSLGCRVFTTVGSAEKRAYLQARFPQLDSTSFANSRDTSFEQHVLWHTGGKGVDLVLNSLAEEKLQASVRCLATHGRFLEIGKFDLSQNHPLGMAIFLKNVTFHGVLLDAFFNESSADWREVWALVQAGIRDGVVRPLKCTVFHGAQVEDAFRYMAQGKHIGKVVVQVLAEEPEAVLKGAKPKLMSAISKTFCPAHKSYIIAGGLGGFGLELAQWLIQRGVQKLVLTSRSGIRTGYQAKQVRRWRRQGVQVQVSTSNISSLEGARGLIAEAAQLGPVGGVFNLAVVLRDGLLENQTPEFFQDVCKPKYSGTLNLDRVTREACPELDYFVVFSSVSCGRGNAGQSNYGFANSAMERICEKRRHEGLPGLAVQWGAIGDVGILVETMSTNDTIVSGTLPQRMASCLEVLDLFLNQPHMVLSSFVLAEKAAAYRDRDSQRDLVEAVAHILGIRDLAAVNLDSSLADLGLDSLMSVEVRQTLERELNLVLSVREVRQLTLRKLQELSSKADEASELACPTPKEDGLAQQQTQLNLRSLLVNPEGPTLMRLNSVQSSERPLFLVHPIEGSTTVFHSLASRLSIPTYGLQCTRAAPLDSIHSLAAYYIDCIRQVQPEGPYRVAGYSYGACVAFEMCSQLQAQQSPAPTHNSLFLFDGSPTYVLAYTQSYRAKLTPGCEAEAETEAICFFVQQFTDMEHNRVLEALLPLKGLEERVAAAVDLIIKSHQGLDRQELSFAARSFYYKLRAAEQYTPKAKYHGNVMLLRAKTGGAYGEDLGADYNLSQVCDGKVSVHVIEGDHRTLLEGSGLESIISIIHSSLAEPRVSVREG

`Cc1c(-c2ccc(OC3CCN(C(=O)[C@@H]4CCCN4)CC3)cc2)ccc2cccnc12` [Example 621, [4-[4-(8-Methyl-7-quinolyl)phenoxy]-1-piperidyl]-[(2S)-pyrrolidin-2-yl]-methanone] and `Cc1c(-c2ccc(OC3CCN(C(=O)C(C)(C)N)CC3)cc2)ccc2cccnc12` [Example 619, 2-Amino-2-methyl-1-[4-[4-(8-methyl-7-quinolyl)phenoxy]-1-piperidyl]propan-1-one] fall in the same range of IC50: 1000 to 10000 nM for the first, 1000 to 10000 nM for the second.

First: Cc1c(-c2ccc(OC3CCN(C(=O)NCCN4CCOCC4)CC3)cc2)ccc2cccnc12 [Example 531, 4-[4-(8-Methyl-7-quinolyl)phenoxy]-N-(2-morpholinoethyl)piperidine-1-carboxamide HCl]
Second: Cc1c(-c2ccc(OC3CCN(C(=O)NCC(C)C)CC3)cc2)ccc2ccnn12 [Example 633, N-Isobutyl-4-[4-(7-methylpyrazolo[1,5-a]pyridin-6-yl)phenoxy]piperidine-1-carboxamide]
The IC50 of the first is higher: 1000 to 10000 nM for the first, 1 to 99 nM for the second.

Compared with `Cc1c(-c2ccc(OC3CCN(C(=O)NOC(C)C)CC3)cc2)ccc2ccnn12` [Example 537, N-Isopropoxy-4-[4-(7-methylpyrazolo[1,5-a]pyridin-6-yl)phenoxy]piperidine-1-carboxamide], `Cc1c(-c2ccc(OC3CCN(C(=O)NOC(C)C)CC3)cc2)ccc2nccn12` [Example 600, N-Isopropoxy-4-[4-(5-methylimidazo[1,2-a]pyridin-6-yl)phenoxy]piperidine-1-carboxamide] is higher in IC50: 1 to 99 nM for the first, 100 to 999 nM for the second.

Same assay, conditions: 5 nM FASN, 150 μM NADPH, 10 μM acetyl-CoA, 25 μM malonyl-CoA, 90 minutes incubation; read-out: IC50 data for Compounds of Formulae I-V/V(a): Activity

`O=C(C1CCC1)N1CCC(Oc2ccc(-c3cnc4ccccc4c3Cl)cc2)CC1` [Example 49, {4-[4-(4-Chloroquinolin-3-yl)-phenoxy]-piperidin-1-yl}-cyclobutyl-methanone] and `O=C([C@H]1CCCO1)N1CCC(Oc2ccc(-c3cnc4ccccc4c3Cl)cc2)CC1` [Example 71, {4-[4-(4-Chloroquinolin-3-yl)-phenoxy]-piperidin-1-yl}-(R)-tetrahydro-furan-2-yl-methanone] fall in the same range of IC50: 1 to 99 nM for the first, 1 to 99 nM for the second.

First: CCOc1c(-c2ccc(OC3CCN(C(=O)[C@H]4CCCO4)CC3)cc2)ccc2cccnc12 [Example 181, {4-[4-(8-Ethoxyquinolin-7-yl)-phenoxy]-piperidin-1-yl}-(R)-tetrahydro-furan-2-yl-methanone, HCl]
Second: O=C(C1CC1)N1CCC(Oc2ccc(-c3ccc4cccnc4c3O)cc2)CC1 [Example 189, Cyclopropyl-{4-[4-(8-hydroxyquinolin-7-yl)-phenoxy]-piperidin-1-yl}-methanone, HCl]
The IC50 of the first is lower: 1 to 99 nM for the first, 100 to 999 nM for the second. The first is the more potent here.

First: CCC(=O)N1CCC(Oc2ccc(-c3ccc4cccnc4c3OCCOC)cc2)CC1 [Example 178, 1-[4-[4-[8-(2-Methoxyethoxy)-7-quinolyl]phenoxy]-1-piperidyl]propan-1-one, HCl]
Second: CCC(=O)N1CCC(Oc2ccc(-c3ccc4cccnc4c3)cc2)CC1 [Example 4, 1-[4-(4-Quinolin-7-yl-phenoxy)-piperidin-1-yl]-propan-1-one]
The IC50 of the first is higher: 100 to 999 nM for the first, 1 to 99 nM for the second. The second is the more potent here.

First: N#Cc1cnc2cc(-c3ccc(OC4CCN(C(=O)C5CC5)CC4)cc3)ccc2c1 [Example 279, 7-[4-(1-Cyclopropanecarbonyl-piperidin-4-yloxy)-phenyl]-quinoline-3-carbonitrile]
Second: Cc1cnc2cc(-c3ccc(OC4CCN(C(=O)C5CC5)CC4)cc3)ccc2c1 [Example 282, Cyclopropyl-{4-[4-(3-methylquinolin-7-yl)-phenoxy]-piperidin-1-yl}-methanone]
The IC50 of the first is lower: 100 to 999 nM for the first, 1000 to 10000 nM for the second.

First: CCC(=O)N1CCC(Oc2ccc(-c3ccc4cncn4c3)cc2)CC1 [Example 299, 1-[4-(4-Imidazo[1,5-a]pyridin-6-yl-phenoxy)-piperidin-1-yl]-propan-1-one]
Second: CCC(=O)N1CCC(Oc2ccc(-c3cnc4cc(F)ccc4c3)cc2)CC1 [Example 478, 1-{4-[4-(7-Fluoroquinolin-3-yl)-phenoxy]-piperidin-1-yl}-propan-1-one]
The IC50 of the first is higher: 1000 to 10000 nM for the first, 1 to 99 nM for the second.

`Nc1nccc2cc(-c3ccc(OC4CCN(C(=O)[C@H]5CCCO5)CC4)cc3)ccc12` [Example 454, {4-[4-(1-Aminoisoquinolin-6-yl)-phenoxy]-piperidin-1-yl}-(R)-tetrahydro-furan-2-yl-methanone] and `Cc1cc(-c2ccc(OC3CCN(C(=O)[C@H]4CCCO4)CC3)cc2)cn2ccnc12` [Example 283, {4-[4-(8-Methylimidazo[1,2-a]pyridin-6-yl)-phenoxy]-piperidin-1-yl}-(R)-tetrahydrofuran-2-yl-methanone] fall in the same range of IC50: 1 to 99 nM for the first, 1 to 99 nM for the second.

First: CCC(=O)N1CCC(Oc2ccc(-c3n[nH]c4ccccc34)cc2)CC1 [Example 248, 1-{4-[4-(1H-Indazol-3-yl)-phenoxy]-piperidin-1-yl}-propan-1-one]
Second: CCC(=O)N1CCC(Oc2ccc(-c3cnc4ccccc4c3)nc2)CC1 [Example 140, 1-[4-(6-Quinolin-3-yl-pyridin-3-yloxy)-piperidin-1-yl]-propan-1-one, 2HCl]
The IC50 of the first is lower: 100 to 999 nM for the first, 1000 to 10000 nM for the second.

`CC(C)C(=O)N1CCC(Sc2ccc(-c3cnc4ccccc4c3)cc2)CC1` [Example 522, 2-Methyl-1-(4-((4-(quinolin-3-yl)phenyl)thio)piperidin-1-yl)propan-1-one, HCl] and `CC(C)C(=O)N1CCC(Oc2ccc(-c3cnc4ccccc4c3)cn2)CC1` [Example 133, 2-Methyl-1-[4-(5-quinolin-3-yl-pyridin-2-yloxy)-piperidin-1-yl]-propan-1-one, HCl] fall in the same range of IC50: 1000 to 10000 nM for the first, 1000 to 10000 nM for the second.

`CCC(=O)N1CCC(Oc2ccc(-c3cnc4ccccc4c3)c(OC)c2)CC1` [Example 209, 1-[4-(3-Methoxy-4-quinolin-3-yl-phenoxy)-piperidin-1-yl]-propan-1-one] and `CCC(=O)N1CCC(Oc2ccc(-c3cnc4cc(OC)c(Cl)cc4c3)cc2)CC1` [Example 447, 1-{4-[4-(6-Chloro-7-methoxyquinolin-3-yl)-phenoxy]-piperidin-1-yl}-propan-1-one] fall in the same range of IC50: 1000 to 10000 nM for the first, 1000 to 10000 nM for the second.

Compared with `Cc1cccc2cc(-c3ccc(OC4CCN(C(=O)C5CC5)CC4)cc3)cnc12` [Example 487, Cyclopropyl-{4-[4-(8-methylquinolin-3-yl)-phenoxy]-piperidin-1-yl}-methanone], `O=C(C1CC1)N1CCC(Oc2ccc(-c3cnc4cccnc4c3)cc2)CC1` [Example 14, Cyclopropyl-[4-(4-1,5-naphthyridin-3-yl-phenoxy)-piperidin-1-yl]-methanone] is higher in IC50: 1 to 99 nM for the first, 1000 to 10000 nM for the second.

First: C[C@@H]1C[C@H](C(=O)N2CCC(Oc3ccc(-c4cnc5ccccc5c4)cc3)CC2)O[C@@H]1C [Example 156, ((2R,4R,5R)/(2S,4S,5 S)-4,5-Dimethyl-tetrahydrofuran-2-yl)-[4-(4-quinolin-3-yl-phenoxy)-piperidin-1-yl]-methanone, HCL]
Second: CO[C@@H](C)C(=O)N1CCC(Oc2ccc(-c3cnc4ccccc4c3)cc2)CC1 [Example 109, (S)-2-Methoxy-1-[4-(4-quinolin-3-yl-phenoxy)-piperidin-1-yl]-propan-1-one, 2HCl]
The IC50 of the first is lower: 100 to 999 nM for the first, 1000 to 10000 nM for the second. The first is the more potent here.

`CC(C)C(=O)N1CCC(Oc2ccc(-c3ccc4cccnc4c3)cn2)CC1` [Example 136, 2-Methyl-1-[4-(5-quinolin-7-yl-pyridin-2-yloxy)-piperidin-1-yl]-propan-1-one, HCl] and `CS(=O)(=O)CC(=O)N1CCC(Oc2ccc(-c3cnc4ccccc4c3)cc2)CC1` [Example 117, 2-Methanesulfonyl-1-[4-(4-quinolin-3-yl-phenoxy)-piperidin-1-yl]-ethanone, HCl] fall in the same range of IC50: 1000 to 10000 nM for the first, 1000 to 10000 nM for the second.

Compared with `O=C(N1CCC(Oc2ccc(-c3cnc4ccccc4c3Cl)cc2)CC1)N1CCCO1` [Example 76, {4-[4-(4-Chloroquinolin-3-yl)-phenoxy]-piperidin-1-yl}-isoxazolidin-2-yl-methanone], `O=C(c1ccon1)N1CCC(Oc2ccc(-c3cnc4ccccc4c3)cc2)CC1` [Example 124, Isoxazol-3-yl-[4-(4-quinolin-3-yl-phenoxy)-piperidin-1-yl]-methanone, HCl] is higher in IC50: 1 to 99 nM for the first, 1000 to 10000 nM for the second. The first is the more potent here.

`CCC(=O)N1CCC(Oc2ccc(-c3ccc4nnc(C(F)(F)F)n4c3)cc2)CC1` [Example 159, 1-{4-[4-(3-Trifluoromethyl-1,2,4-triazolo[4,3-a]pyridin-6-yl)-phenoxy]-piperidin-1-yl}-propan-1-one, HCl] and `CCC(=O)N1CC[C@H](Oc2ccc(-c3cnc4ccccc4c3)cc2)C1` [Example 343, (S)-1-(3-(4-(Quinolin-3-yl)phenoxy)pyrrolidin-1-yl)propan-1-one, HCl] fall in the same range of IC50: 1000 to 10000 nM for the first, 1000 to 10000 nM for the second.

First: Cc1c(-c2ccc(OC3CCN(C(=O)C4CC4)CC3)cc2)cccc1-c1ccccn1 [Example 407, Cyclopropyl-[4-(2′-methyl-3′-pyridin-2-yl-biphenyl-4-yloxy)-piperidin-1-yl]-methanone, TFA salt]
Second: O=C(C1CC1)N1CCC(Oc2ccc(-c3ccc4c(Cl)ccnc4c3)cc2)CC1 [Example 258, {4-[4-(4-Chloroquinolin-7-yl)-phenoxy]-piperidin-1-yl}-cyclopropyl-methanone, TFA salt]
The IC50 of the first is higher: 1000 to 10000 nM for the first, 100 to 999 nM for the second. The second is the more potent here.

`O=C(c1cccc(-c2nc3ccccc3[nH]2)c1)N1CCC(Oc2ccc(-c3cnc4ccccc4c3)cc2)CC1` [Example 130, [3-(1H-Benzimidazol-2-yl)-phenyl]-[4-(4-quinolin-3-yl-phenoxy)-piperidin-1-yl]-methanone, HCl] and `O=C(C1CCC1)N1CCC(Oc2ccc(-c3ccc(Nc4ccccc4)nc3)cc2)CC1` [Example 394, Cyclobutyl-{4-[4-(6-phenylaminopyridin-3-yl)-phenoxy]-piperidin-1-yl}-methanone, TFA salt] fall in the same range of IC50: 1000 to 10000 nM for the first, 1000 to 10000 nM for the second.

`CN(c1ccc(-c2cnc3ccccc3c2)cc1)C1CCN(C(=O)[C@H]2CCCO2)CC1` [Example 528, {4-[Methyl-(4-quinolin-3-yl-phenyl)-amino]-piperidin-1-yl}-(R)-tetrahydrofuran-2-yl-methanone, HCl] was tested, and the IC50 was 100 to 999 nM.

Reference: patent US9902696B2, “1,4-substituted piperidine derivatives” (Cephalon, Inc., priority 2015, dated 2018)
